Reference: patent publication US20130303509A1, “NAMPT INHIBITORS” (AbbVie Inc., priority 2012, published 2013)

Test system: PC3 cells
Experiment: NAMPT Cell Proliferation Assay
Type: cell-based
Conditions: Homo sapiens, PC-3, 120 h, 5 days incubation, cell viability by Cell Titer Glo
How it was run: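 Seeded at 500 cells/well in RPMI with 10% heat-inactivated FBS and left to attach overnight at 37° C, 5% CO2. Compounds were added as 10-fold dilutions […] for 5 days, then viability was read by CellTiter-Glo. IC50s came from sigmoidal fits of percent inhibition.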

| SMILES | IC50 |
| --- | --- |
| Cc1ccc(OCC(=O)N2CCC(c3ccc(NC(=O)C4CN(c5cccnn5)C4)cc3)CC2)cc1 [Example 398, N-(4-{1-[(4-methylphenoxy)acetyl]piperidin-4-yl}phenyl)-1-(pyridazin-3-yl)azetidine-3-carboxamide] | 8.19 nM |
| O=C(Nc1ccc(C2CCN(C(=O)C(F)(F)c3ccccc3)CC2)cc1)C1CN(c2ccnnc2)C1 [Example 558, N-(4-{1-[difluoro(phenyl)acetyl]piperidin-4-yl}phenyl)-1-(pyridazin-4-yl)azetidine-3-carboxamide] | 0.66 nM |
| CC(=O)N[C@@H](CC(C)C)C(=O)N1CCC(c2ccc(NC(=O)C3CN(c4cccnc4C)C3)cc2)CC1 [Example 180, N-{4-[1-(N-acetyl-L-leucyl)piperidin-4-yl]phenyl}-1-(2-methylpyridin-3-yl)azetidine-3-carboxamide] | 164 nM |
| O=C(Nc1ccc(C2CCN(C(=O)CC3CC3)CC2)cc1F)C1CN(c2cccnn2)C1 [Example 862, N-{4-[1-(cyclopropylacetyl)piperidin-4-yl]-2-fluorophenyl}-1-(pyridazin-3-yl)azetidine-3-carboxamide] | 8.49 nM |
| O=C(Nc1ccc(C2CCN(C(=O)CC3CC3)CC2)cc1)C1CN(c2ccnnc2)C1 [Example 527, N-{4-[1-(cyclopropylacetyl)piperidin-4-yl]phenyl}-1-(pyridazin-4-yl)azetidine-3-carboxamide] | 7.78 nM |
| CC(C)(O)C(=O)N1CCC(c2ccc(NC(=O)C3CN(c4cccnc4C#N)C3)cc2)CC1 [Example 2, 1-(2-cyanopyridin-3-yl)-N-{4-[1-(2-hydroxy-2-methylpropanoyl)piperidin-4-yl]phenyl}azetidine-3-carboxamide] | > 10000 nM |
| O=C(Nc1ccc(C2CCN(C(=O)c3ccc(O)cc3)CC2)cc1)[C@H]1CCN(c2cccnn2)C1 [Example 732, (3S)-N-{4-[1-(4-hydroxybenzoyl)piperidin-4-yl]phenyl}-1-(pyridazin-3-yl)pyrrolidine-3-carboxamide] | 29.9 nM |
| O=C(Nc1ccc(C2CCN(C(=O)CCCc3cccs3)CC2)cc1)C1CN(c2cccnn2)C1 [Example 415, 1-(pyridazin-3-yl)-N-(4-{1-[4-(thiophen-2-yl)butanoyl]piperidin-4-yl}phenyl)azetidine-3-carboxamide] | 2.28 nM |
| CC(C)(C)C(=O)N1CCC(F)(c2ccc(NC(=O)C3CN(c4cccnn4)C3)cc2)CC1 [Example 864, N-{4-[1-(2,2-dimethylpropanoyl)-4-fluoropiperidin-4-yl]phenyl}-1-(pyridazin-3-yl)azetidine-3-carboxamide] | 5.29 nM |
| CC(C)Cn1cc(-c2ccc(C(=O)N[C@H]3CCN(c4cccnn4)C3)o2)cn1 [Example 747, 5-[1-(2-methylpropyl)-1H-pyrazol-4-yl]-N-[(3S)-1-(pyridazin-3-yl)pyrrolidin-3-yl]furan-2-carboxamide] | 5920 nM |
| O=C(Nc1ccc(C2CCN(CC3CCCC3)CC2)cc1)C1CN(c2cccnc2)C1 [Example 88, N-{4-[1-(cyclopentylmethyl)piperidin-4-yl]phenyl}-1-(pyridin-3-yl)azetidine-3-carboxamide] | 66.3 nM |
| COCC(=O)N1CCC(c2ccc(NC(=O)C3CN(c4cccnc4C)C3)cc2)CC1 [Example 195, N-{4-[1-(methoxyacetyl)piperidin-4-yl]phenyl}-1-(2-methylpyridin-3-yl)azetidine-3-carboxamide] | 701 nM |
| Cc1ccc(C(=O)N2CCC(c3ccc(NC(=O)C4CN(c5cccnn5)C4)cc3)CC2)cc1C [Example 360, N-{4-[1-(3,4-dimethylbenzoyl)piperidin-4-yl]phenyl}-1-(pyridazin-3-yl)azetidine-3-carboxamide] | 2.35 nM |
| Cc1ccc(S(=O)(=O)NCC(=O)N2CCC(c3ccc(NC(=O)C4CN(c5cccnn5)C4)cc3)CC2)cc1 [Example 418, N-[4-(1-{N-[(4-methylphenyl)sulfonyl]glycyl}piperidin-4-yl)phenyl]-1-(pyridazin-3-yl)azetidine-3-carboxamide] | 8.26 nM |
| COc1ncccc1N1CC(C(=O)Nc2ccc(C3CCN(C(=O)C(C)(C)O)CC3)cc2)C1 [Example 73, N-{4-[1-(2-hydroxy-2-methylpropanoyl)piperidin-4-yl]phenyl}-1-(2-methoxypyridin-3-yl)azetidine-3-carboxamide] | 1980 nM |
| Cc1ncccc1N1CC(C(=O)Nc2ccc(C3CCN(C(=O)CC4CCCCC4)CC3)cc2)C1 [Example 179, N-{4-[1-(cyclohexylacetyl)piperidin-4-yl]phenyl}-1-(2-methylpyridin-3-yl)azetidine-3-carboxamide] | 192 nM |
| O=C(Nc1ccc(O[C@@H]2CCN(C(=O)c3ccc(C(F)(F)F)cc3)C2)cc1)C1CN(c2cccnn2)C1 [Example 517, 1-(pyridazin-3-yl)-N-[4-({(3R)-1-[4-(trifluoromethyl)benzoyl]pyrrolidin-3-yl}oxy)phenyl]azetidine-3-carboxamide] | 9.21 nM |
| O=C(Nc1ccc(C2CCN(C(=O)c3ccc(OC(F)(F)F)cc3)CC2)cc1)C1CN(c2ccnnc2)C1 [Example 555, 1-(pyridazin-4-yl)-N-(4-{1-[4-(trifluoromethoxy)benzoyl]piperidin-4-yl}phenyl)azetidine-3-carboxamide] | 23.9 nM |

Continued, values first:

| IC50 | SMILES |
| --- | --- |
| 7610 nM | COc1ccncc1N1CC(C(=O)Nc2ccc(C3CCN(C(=O)C(C)(C)O)CC3)cc2)C1 [Example 96, N-{4-[1-(2-hydroxy-2-methylpropanoyl)piperidin-4-yl]phenyl}-1-(4-methoxypyridin-3-yl)azetidine-3-carboxamide] |
| 61.8 nM | O=C1CC[C@H](C(=O)N2CCC(c3ccc(NC(=O)C4CN(c5cccnc5)C4)cc3)CC2)N1 [Example 106, N-{4-[1-(5-oxo D-prolyl)piperidin-4-yl]phenyl}-1-(pyridin-3-yl)azetidine-3-carboxamide] |
| 739 nM | CC(C)(C)OC(=O)N1CCC(Oc2ccc(NC(=O)[C@@H]3CCN(c4cccnc4)C3)cc2)CC1 [Example 9, tert-butyl 4-[4-({[(3R)-1-(pyridin-3-yl)pyrrolidin-3-yl]carbonyl}amino)phenoxy]piperidine-1-carboxylate] |
| 9.11 nM | O=C(Nc1ccc(OC2CCN(C(=O)c3cccc(Cl)c3)CC2)cc1)C1CN(c2cccnn2)C1 [Example 250, N-(4-{[1-(3-chlorobenzoyl)piperidin-4-yl]oxy}phenyl)-1-(pyridazin-3-yl)azetidine-3-carboxamide] |
| 0.16 nM | O=C(Nc1ccc(C2CCN(C(=O)c3ccco3)CC2)cc1)C1CN(c2cccnc2)C1 [Example 129, N-{4-[1-(furan-2-ylcarbonyl)piperidin-4-yl]phenyl}-1-(pyridin-3-yl)azetidine-3-carboxamide] |
| 70.9 nM | O=C(Nc1ccc(O[C@@H]2CCN(C(=O)c3ccccn3)C2)cc1)C1CN(c2ccnnc2)C1 [Example 463, 1-(pyridazin-4-yl)-N-(4-{[(3R)-1-(pyridin-2-ylcarbonyl)pyrrolidin-3-yl]oxy}phenyl)azetidine-3-carboxamide] |
| 82.4 nM | O=C(Nc1ccc(OC2CCN(C(=O)C3CCCO3)CC2)cc1)C1CN(c2ccnnc2)C1 (stereo not shown) [Example 302, 1-(pyridazin-4-yl)-N-(4-{[1-(tetrahydrofuran-2-ylcarbonyl)piperidin-4-yl]oxy}phenyl)azetidine-3-carboxamide] |
| 7.64 nM | O=C(Nc1ccc(O[C@@H]2CCN(C(=O)c3cccc(F)c3)C2)cc1)[C@H]1CCN(c2cccnn2)C1 [Example 776, (3S)-N-(4-{[(3R)-1-(3-fluorobenzoyl)pyrrolidin-3-yl]oxy}phenyl)-1-(pyridazin-3-yl)pyrrolidine-3-carboxamide] |
| 876 nM | O=C(Nc1ccc(OC2CCN(C(=O)CC3CCOCC3)CC2)cc1)C1CN(c2cnccc2C(F)(F)F)C1 [Example 7, N-(4-{[1-(tetrahydro-2H-pyran-4-ylacetyl)piperidin-4-yl]oxy}phenyl)-1-[4-(trifluoromethyl)pyridin-3-yl]azetidine-3-carboxamide] |
| 0.26 nM | CC1(C(=O)N2CCC(c3ccc(NC(=O)C4CN(c5cccnc5)C4)cc3)CC2)CC1 [Example 110, N-(4-{1-[(1-methylcyclopropyl)carbonyl]piperidin-4-yl}phenyl)-1-(pyridin-3-yl)azetidine-3-carboxamide] |
| 6.39 nM | CCC(C)CC(=O)N1CCC(Oc2ccc(NC(=O)C3CN(c4cccnc4)C3)cc2)CC1 (stereo not shown) [Example 38, N-(4-{[1-(3-methylpentanoyl)piperidin-4-yl]oxy}phenyl)-1-(pyridin-3-yl)azetidine-3-carboxamide] |
| 66.6 nM | O=C(Nc1ccc(OC2CCN(C(=O)c3ccc(F)cc3F)CC2)cc1)C1CN(c2ccnnc2)C1 [Example 284, N-(4-{[1-(2,4-difluorobenzoyl)piperidin-4-yl]oxy}phenyl)-1-(pyridazin-4-yl)azetidine-3-carboxamide] |
| 1770 nM | Cc1ccc(N2CC[C@H](C(=O)Nc3ccc(OC4CCN(C(=O)C(C)(C)C)CC4)cc3)C2)nn1 [Example 838, (3S)—N-(4-{[1-(2,2-dimethylpropanoyl)piperidin-4-yl]oxy}phenyl)-1-(6-methylpyridazin-3-yl)pyrrolidine-3-carboxamide] |
| 71.9 nM | CC(C)(C)C(=O)N1CCC(Oc2ccc(NC(=O)C3CN(c4ccnnc4)C3)cc2)CC1 [Example 280, N-(4-{[1-(2,2-dimethylpropanoyl)piperidin-4-yl]oxy}phenyl)-1-(pyridazin-4-yl)azetidine-3-carboxamide] |
| 41.6 nM | CCOCC(=O)N1CCC(c2ccc(NC(=O)[C@H]3CCN(c4cccnn4)C3)cc2)CC1 [Example 635, (3S)-N-{4-[1-(ethoxyacetyl)piperidin-4-yl]phenyl}-1-(pyridazin-3-yl)pyrrolidine-3-carboxamide] |
| 12.4 nM | O=C(Nc1ccc(OC2CCN(C(=O)c3ccc(OC(F)(F)F)cc3)CC2)cc1)C1CN(c2cccnn2)C1 [Example 235, 1-(pyridazin-3-yl)-N-[4-({1-[4-(trifluoromethoxy)benzoyl]piperidin-4-yl}oxy)phenyl]azetidine-3-carboxamide] |
